In the Deep4Chem optical property database:

Test: photoluminescence quantum yield (fraction); solvent given as SMILES
[1] = in O=P(c1ccccc1)(c1ccccc1)c1ccccc1Oc1ccccc1P(=O)(c1ccccc1)c1ccccc1

CCCCCCCCC1(CCCCCCCC)c2ccccc2-c2ccc(N(c3ccc(-n4c5ccccc5c5ccccc54)cc3)c3ccc4c(c3)C(CCCCCCCC)(CCCCCCCC)c3ccccc3-4)cc21
photoluminescence quantum yield (in C1CCOC1): 0.24 | photoluminescence quantum yield (in CC#N): 0.31 | photoluminescence quantum yield (in CC(C)=O): 0.31 | photoluminescence quantum yield (in CCCCCC): 0.27 | photoluminescence quantum yield (in CCCCOCCCC): 0.25 | photoluminescence quantum yield (in CCN(CC)CC): 0.27 | photoluminescence quantum yield (in CCOC(C)=O): 0.3 | photoluminescence quantum yield (in CCOCC): 0.37 | photoluminescence quantum yield (in CN(C)C=O): 0.32 | photoluminescence quantum yield (in Cc1ccccc1): 0.36 | photoluminescence quantum yield (in ClCCl): 0.3

CCCCCCOc1ccc(N(c2ccc(OCCCCCC)cc2)c2ccc(-c3sc(-c4ccc(N(c5ccc(OCCCCCC)cc5)c5ccc(OCCCCCC)cc5)cc4)c4nc(-c5ccc(OC)cc5)c(-c5ccc(OC)cc5)nc34)cc2)cc1
photoluminescence quantum yield (in CN(C)C=O): 0.0287 | photoluminescence quantum yield (in ClC(Cl)Cl): 0.014

CCCCCCOc1ccc(N(c2ccc(OCCCCCC)cc2)c2ccc(-c3sc(-c4ccc(N(c5ccc(OCCCCCC)cc5)c5ccc(OCCCCCC)cc5)cc4)c4nc(-c5ccc(C(=O)OC)cc5)c(-c5ccc(C(=O)OC)cc5)nc34)cc2)cc1
photoluminescence quantum yield (in CN(C)C=O): 0.021 | photoluminescence quantum yield (in ClC(Cl)Cl): 0.026

CN(C)c1ccc(/C=C/c2nc3ccc(Br)cc3nc2-c2ccccc2)cc1
photoluminescence quantum yield (in C1COCCO1): 0.19 | photoluminescence quantum yield (in CC#N): 0.01 | photoluminescence quantum yield (in ClCCl): 0.17

CC1(C)c2cc(-n3c4ccccc4c4ccccc43)ccc2N(c2ccc(-c3cc(-c4ccccc4)nc(-c4ccccc4)n3)cc2)c2ccc(-n3c4ccccc4c4ccccc43)cc21
photoluminescence quantum yield [1]: 0.81

CC(C)c1cc(C(C)C)c(-c2nnc(-c3ccc(-n4c5ccccc5c5ccccc54)cc3)o2)c(C(C)C)c1
photoluminescence quantum yield (in Cc1ccccc1): 0.61

CCOC(=O)C1=CN(c2ccccc2)C=C(C(=O)OCC)C1c1ccccc1
photoluminescence quantum yield (in C1CCOC1): 0.51 | photoluminescence quantum yield (in CO): 0.44

c1ccc2c(-c3c4ccccc4c(-c4ccc(-n5c6ccccc6c6ccccc65)cc4)c4ccccc34)cccc2c1
photoluminescence quantum yield (in ClCCl): 0.78

CC(C)(C)c1ccc(C#Cc2c(C#Cc3ccc(C(C)(C)C)cc3)c3cccc4c(C#Cc5ccc(C(C)(C)C)cc5)c(C#Cc5ccc(C(C)(C)C)cc5)c5cccc2c5c34)cc1
photoluminescence quantum yield (in ClCCl): 0.7

c1ccc(-c2nn(-c3ccccc3)c3nc4ccc(-n5c6ccccc6c6ccccc65)cc4cc23)cc1
photoluminescence quantum yield (in C1CCCCC1): 0.88 | photoluminescence quantum yield (in C1CCOC1): 0.81 | photoluminescence quantum yield (in CC#N): 0.72 | photoluminescence quantum yield (in CC(C)=O): 0.72 | photoluminescence quantum yield (in CCCCCl): 0.88 | photoluminescence quantum yield (in CCCCOCCCC): 0.7 | photoluminescence quantum yield (in CN(C)C=O): 0.76

COc1cc(OC)c2c(c1)c1cc3oc(=O)cc(C)c3cc1c1cc(OC)cc(OC)c12
photoluminescence quantum yield (in ClC(Cl)Cl): 0.1

COc1ccc(-c2nc(-c3ccc(OC)cc3)n3ccccc23)cc1
photoluminescence quantum yield (in ClC(Cl)Cl): 0.22

Nc1ccccc1C(=O)O
photoluminescence quantum yield (in C1CCCCC1): 0.29 | photoluminescence quantum yield (in CC#N): 0.56 | photoluminescence quantum yield (in CC(C)=O): 0.31 | photoluminescence quantum yield (in CCO): 0.59 | photoluminescence quantum yield (in CS(C)=O): 0.64 | photoluminescence quantum yield (in O): 0.6 | photoluminescence quantum yield (in OCC(F)(F)F): 0.27 | photoluminescence quantum yield (in c1ccccc1): 0.39

COc1ccc(-c2c(-c3ccc(OC)cc3)c3c4c(cccc4c2-c2ccccc2)C(=O)c2ccccc2-3)cc1
photoluminescence quantum yield (in CC#N): 0.55 | photoluminescence quantum yield (in CO): 0.05

Cc1nc2cccc(-c3nc4ccccc4o3)c2c(=O)[nH]1
photoluminescence quantum yield (in CN(C)C=O): 0.392

COc1ccc(-c2ncccn2)cc1
photoluminescence quantum yield (in ClCCl): 0.01

c1ccc(-c2nnc(-c3cc(-c4nnc(-c5ccccc5)o4)c(-n4c5ccccc5c5ccccc54)cc3-n3c4ccccc4c4ccccc43)o2)cc1
photoluminescence quantum yield (in Cc1ccccc1): 0.101 | photoluminescence quantum yield [1]: 0.581

F[B-]1(F)Oc2ccccc2-c2n(-c3ccc(C(F)(F)F)cc3)c(-c3ccccc3)c(-c3ccccc3)[n+]21
photoluminescence quantum yield (in C1CCOC1): 0.49

C[n+]1cc2ccc3c[n+](C)c4ccccc4c3c2c2ccccc21
photoluminescence quantum yield (in CC#N): 0.066

COc1ccc(OC)c(C(C)=O)c1
photoluminescence quantum yield (in CO): 0.1

C(=C\c1ccncn1)/c1ccc(N2CCCCC2)cc1
photoluminescence quantum yield (in ClCCl): 0.13

Cc1ccc(/C=C(\c2ccccc2)c2nc3ccccc3o2)cc1
photoluminescence quantum yield (in C1CCCCC1): 0.008 | photoluminescence quantum yield (in CO): 0.004

CC(C)=CCN1C(=O)c2cccc3c2c(cc2oc(C)nc23)C1=O
photoluminescence quantum yield (in CCO): 0.011

c1ccc(-c2nc(-c3ccccc3)nc(-c3ccc(-n4c5ccccc5c5ccc6c(c7ccccc7n6-c6ccccc6)c54)cc3)n2)cc1
photoluminescence quantum yield (in O=P(c1ccccc1)(c1ccccc1)c1ccc2oc3ccc(P(=O)(c4ccccc4)c4ccccc4)cc3c2c1): 0.9

c1csc(-n2c3ccccc3c3ccccc32)c1
photoluminescence quantum yield (in ClCCl): 0.014

O=C1c2ccc3c4ccc5c6c(ccc(c7ccc(c2c37)C(=O)N1c1ccc(Cl)cc1)c64)C(=O)N(c1ccc(Cl)cc1)C5=O
photoluminescence quantum yield (in CN(C)C=O): 0.84

O=C(O)C1=C(C(=O)O)C2=C[C@H]3c4ccccc4[C@]2([Se]1)c1ccccc13
photoluminescence quantum yield (in ClCCl): 0.38

C(S/C=C/c1ccc(/C=C/SC=C(c2ccccc2)c2ccccc2)cc1)=C(c1ccccc1)c1ccccc1
photoluminescence quantum yield (in ClCCl): 0.058

CC(C)(C)c1cc2cc(N(c3ccccc3)c3ccccc3)c3cc(C(C)(C)C)cc4cc(N(c5ccccc5)c5ccccc5)c(c1)c2c43
photoluminescence quantum yield (in CCCCCC): 0.28

c1ccc([Si]2(c3ccccc3)c3ccccc3-c3cc4c(cc32)-c2ccccc2[Si]4(c2ccccc2)c2ccccc2)cc1
photoluminescence quantum yield (in ClCCl): 0.56

COOCc1noc(-c2ccccc2)c1Cl
photoluminescence quantum yield (in C1CCCCC1): 0.006

CCn1c(-c2ccc(-c3ccc(-c4ccc(-c5n(CC)c6cc(C)ccc6[n+]5CC)cc4)cc3)cc2)[n+](CC)c2ccc(C)cc21
photoluminescence quantum yield (in O): 0.72

CC(C)c1cccc(C(C)C)c1N1C(=O)c2cccc3c(Oc4ccc(C(C)(C)C)cc4)ccc(c23)C1=O
photoluminescence quantum yield (in ClCCl): 0.11

Clc1cc(Cl)c(B2c3ccccc3Nc3ccccc32)c(Cl)c1
photoluminescence quantum yield (in ClCCl): 0.82

CC[C@H](C)COc1ccc(C2=C3C(C)=C(c4ccc5ccc6cccc7ccc4c5c67)C(C)=[N+]3[B-](F)(F)n3c(C)c(-c4ccc5ccc6cccc7ccc4c5c67)c(C)c32)cc1
photoluminescence quantum yield (in ClCCl): 0.5

Cc1cc(C)c(-c2nnc(-c3ccc(-n4c5ccccc5c5ccccc54)c(C)c3)o2)c(C)c1
photoluminescence quantum yield (in Cc1ccccc1): 0.44

CN(C)c1ccc2c3c(c(=O)oc2c1)C=c1cc2c(cc1O3)=[N+](CCC(=O)O)CCC2
photoluminescence quantum yield (in CC#N): 0.242 | photoluminescence quantum yield (in CO): 0.166 | photoluminescence quantum yield (in ClCCl): 0.685 | photoluminescence quantum yield (in O): 0.041

CC(C)(C)c1ccc2ccc3cc(-c4ccc5c(-c6ccc7c(ccc8ccc(C(C)(C)C)cc87)c6)cc6c7cc(-c8ccc9c(ccc%10ccc(C(C)(C)C)cc%109)c8)ccc7c(-c7ccc8c(ccc9ccc(C(C)(C)C)cc98)c7)cc6c5c4)ccc3c2c1
photoluminescence quantum yield (in ClCCl): 0.781

CC(=O)Nc1ccc(/C=C2\OC(=O)c3cc(N)ccc32)cc1
photoluminescence quantum yield (in CC#N): 0.015 | photoluminescence quantum yield (in CC(C)=O): 0.02 | photoluminescence quantum yield (in CC(C)CO): 0.032 | photoluminescence quantum yield (in CC(C)O): 0.032 | photoluminescence quantum yield (in CCCO): 0.03 | photoluminescence quantum yield (in CCO): 0.028 | photoluminescence quantum yield (in CCOC(C)=O): 0.023 | photoluminescence quantum yield (in CCOCC): 0.04 | photoluminescence quantum yield (in CO): 0.02

CCC1(CC)c2cc(B(c3c(C)cc(C)cc3C)c3c(C)cc(C)cc3C)ccc2-c2c1c1c(c3c2C(CC)(CC)c2cc(B(c4c(C)cc(C)cc4C)c4c(C)cc(C)cc4C)ccc2-3)C(CC)(CC)c2cc(B(c3c(C)cc(C)cc3C)c3c(C)cc(C)cc3C)ccc2-1
photoluminescence quantum yield (in C1CCOC1): 0.34

F[B-]1(F)Oc2ccccc2-c2nc(-c3ccccc3)c3ccccc3[n+]21
photoluminescence quantum yield (in Cc1ccccc1): 0.013

COc1ccc(-c2nc(-c3ccc(C(=O)O)cc3)[nH]c2-c2ccc(OC)cc2)cc1
photoluminescence quantum yield (in CO): 0.42

CC(C)(C)c1ccc(-c2cc(-c3ccc(-c4cc(-c5ccc(C(C)(C)C)cc5)c(C(=O)NCc5ccccc5)s4)s3)sc2C(=O)NCc2ccccc2)cc1
photoluminescence quantum yield (in ClCCl): 0.33

CCCCN(CCCC)c1ccc(C#Cc2cc(C#Cc3ccc(N(CCCC)CCCC)cc3)c(C#Cc3c(F)c(F)c(F)c(F)c3F)cc2C#Cc2c(F)c(F)c(F)c(F)c2F)cc1
photoluminescence quantum yield (in ClCCl): 0.3

Cc1ccc(C2=Nc3cccc4[n+]3[B-](F)(O2)OC(c2ccc(C)cc2)=N4)cc1
photoluminescence quantum yield (in ClCCl): 0.3

C[Si](C)(c1cccc2ccccc12)[Si](C)(C)[Si](C)(C)[Si](C)(C)c1c2ccccc2cc2ccccc12
photoluminescence quantum yield (in C1CCCCC1): 0.65 | photoluminescence quantum yield (in CC#N): 0.08

O=C1NC(=O)C(c2c[nH]c3ccccc23)=C1c1c[nH]c2ccccc12
photoluminescence quantum yield (in C1CCOC1): 0.24 | photoluminescence quantum yield (in CC#N): 0.1 | photoluminescence quantum yield (in CC(C)OC(C)C): 0.28 | photoluminescence quantum yield (in CCCCOCCCC): 0.22 | photoluminescence quantum yield (in CCO): 0.003 | photoluminescence quantum yield (in CCOC(C)=O): 0.21 | photoluminescence quantum yield (in CN(C)C=O): 0.13 | photoluminescence quantum yield (in Cc1ccccc1): 0.28 | photoluminescence quantum yield (in ClCCl): 0.21

COc1ccc2c(c1)CCc1c(-c3ccccc3)c3n(c1-2)[B-](F)(F)[N+]1=c2ccc4ccccc4c2=C(c2ccccc2)C1=N3
photoluminescence quantum yield (in ClC(Cl)Cl): 0.11

CC1(C)c2ccccc2N(c2ccc(-c3ccc(C#N)cc3)cc2)c2ccccc21
photoluminescence quantum yield (in Cc1ccccc1): 0.178 | photoluminescence quantum yield (in N#Cc1ccc2c(c1)c1ccccc1n2-c1cccc(-n2c3ccccc3c3ccccc32)c1): 0.36

Cn1ncc2c3c(C#N)c4c5ccccc5n(C)c4nc3ccc21
photoluminescence quantum yield (in CCOC(C)=O): 0.51

Cc1cc(C)c(B2c3cc(C(C)(C)C)cc4c5ccccc5c5c6ccccc6c6cc(C(C)(C)C)cc2c6c5c34)c(C)c1
photoluminescence quantum yield (in C1CCCCC1): 0.7

CC[N+](CC)=c1ccc2c(-c3ccccc3C(=O)O)c3c(=O)oc4c5c6c(cc4c3oc-2c1)CCCN6CCC5
photoluminescence quantum yield (in CCO): 0.01 | photoluminescence quantum yield (in ClC(Cl)Cl): 0.09

CC(C)(C)NC(=O)c1cccc2ccc3c4ccccc4c4ccccc4c3c12
photoluminescence quantum yield (in ClCCl): 0.03

c1ccc([B-]2(c3ccccc3)Oc3ccc4ccccc4c3-c3c4ccccc4cc[n+]32)cc1
photoluminescence quantum yield (in Cc1ccccc1): 0.32
